Legend:
[1] = test system: HEL cells; assay: Hoechst 33258 staining (DNA damage); format: cell-based; conditions: 0.125-1 μM, 24 h
Method: (§1) Cell cycle regulation is critical for cell differentiation and proliferation. To investigate whether H-120 affects the cell cycle of HEL, we treated HEL cells with various concentrations of H-120.
After subjecting HEL cells to H-120 solution (0.125 μM, 0.25 μM, 0.5 μM, 1μM) for 24 h, the cells were collected, resuspended, and washed with pre-cooled PBS. Subsequently, the cells were fixed, stained, and washed according to the instructions provided by the Apoptosis-Hoechst 33258 Staining Kit. To prevent fluorescence interference, an appropriate volume of anti-fluorescence quenching sealing solution was added to the cells. The cells were then placed on a spare slide, covered with a coverslip, and immediately observed and photographed using a Nikonfluorescence microscope.

[2] = test system: K562 cells; assay: MTT cell viability assay, K562 cells; format: cell-based; conditions: Homo sapiens, 48 h
Method: (§2) To estimate the effects of N-Phenyl-2-pyrimidinamine derivatives (Figure 1A) on HEL, K562, and Jurkat cells, we treated these cells with the compounds at different concentrations (1–20 μM) for 48 h. […] H-121 could selectively impair the proliferation of HEL and Jurkat cells. H-123 blocked the proliferation of the Jurkat cells. Those four compounds had no toxicity to the HL7702 cell line.
(§3) The logarithmically grown HEL cells were seeded in a 96-well culture plate at a density of 8000 cells per well and treated with different concentrations of H-120 (0.125 μM, 0.25 μM, 0.5 μM, and 1 μM) or 0.1% DMSO (control). After 24 h, 48 h, and 72 h treatment, the cells were added to 10 μL of MTT reagent for 4 h, and then added to 100 μL of triple cleavage fluid (SDS 10 g, isobutanol 5 mL and 10M HCl 0.1 mL, dissolved with ddH2O into 100 mL solution). After using a microscope to observe the completely dissolved crystal, the cells’ optical absorbance value was measured at 570 nm using an enzyme-labeling instrument (BioTek, Winooski, VT, United States). Inhibition rate = (OD value of DMSO group-OD value of experimental group)/OD value of DMSO group × 100%.

[3] = test system: HEL cells; assay: JC-1 mitochondrial membrane potential assay; format: cell-based; conditions: 0.125-1 μM, 48 h, flow cytometry
Method: (§4) Apoptosis plays a crucial role in impairing cancer cell viability. To determine whether the H-120 inhibiting HEL cell growth is caused by apoptosis, we applied HEL cells with different concentrations of H-120. […] To explore the mechanism of apoptosis, we used JC-1 staining to detect the effect of H-120 on mitochondrial membrane potential. […] The results confirmed that H-120 can induce HEL cell apoptosis by impairing mitochondria.
Cells (2 × 10^5) were seeded in a 2 mL medium with different concentrations of H-120 (0.125 μM, 0.25 μM, 0.5 μM, 1 μM). After being treated with H-120 for 48 h, the cells were preincubated with JC-1 working solution for 20 min at 37 °C, 5% CO2. After incubation, the dye was removed, and the cells were washed two times with JC-1 [48].

[4] = test system: Jurkat cells; assay: MTT cell viability assay, Jurkat cells; format: cell-based; conditions: Homo sapiens, 48 h
Method: as §2, §3

[5] = test system: HEL cells; assay: Cell cycle analysis (PI, flow cytometry); format: cell-based; conditions: 0.125-1 μM, 24 h
Method: as §1
(§5) For the apoptosis detection assay, the logarithmically grown HEL cells were treated with H-120 solution (0.125 μM, 0.25 μM, 0.5 μM, and 1 μM) for 24 h, 48 h, and 72 h. Subsequently, the cells were collected and rinsed three times with pre-cooled PBS. Based on the instruction of the Annexin V-FITC apoptosis detection kit, the cells were resuspended in 50 μL of 1 × binding buffer and stained for 15 minutes. Then, the apoptosis rate was determined using flow cytometry (ACEA NovoCyte, San Diego, CA, United States). For cell cycle analysis, HEL cells were treated with the different concentrations of H-120 (0.125 μM, 0.25 μM, 0.5 μM, 1 μM) for 24 h. Cells were collected, fixed with pre-cooled 70% ethanol, and kept at 4 °C for 4 h before being transferred to −20 °C overnight. Cells were stained with 0.5 mL of PI (propidium iodide, 50 µg/mL), RNase (5 µg/mL) inhibitor, and Triton × 100 (0.5 µg/mL) for 10 min at room temperature in the dark and then analyzed by flow cytometry.

[6] = test system: HEL cells; assay: Western blotting of cell cycle, apoptosis, Ras/Raf/MEK/ERK and STAT3/c-Myc proteins; format: cell-based; conditions: Western blot
Excerpt: as §1
To study the effect of H-120 on apoptosis proteins, we treated HEL cells with various concentrations of H-120.
To assess whether the effect of H-120 on HEL cells is involved in the inactivation of Ras/Raf/MEK/ERK/MAPK signaling pathway, we tracked this pathway bottom-up in HEL cells treated with H-120 using Western blotting.
To examine the effect of H-120 on the p-STAT3 and c-Myc, we checked the p-STAT3 and c-Myc levels in HEL cells treated with H-120. […] STAT3 acts through its phosphorylation and enters nuclear. The nuclear–cytoplasmic separation experiment was conducted.
HEL cells were collected after 24 h of H-120 treatment and washed with PBS, and the supernatant was discarded. According to the instructions of the Nuclear and Cytoplasmic Protein Extraction Kit (Beyotime Biotechnology, Shanghai, China), we added cytoplasmic protein extraction reagent A equipped with PMSF (phenylmethanesulfonyl fluoride) and used vigorous vortexing at 2500 rpm for 5 s to suspend and disperse the cell precipitation entirely. After 15 min of an ice bath, we added cytoplasmic protein extraction reagent B. The sample was vigorously vortexed at 2500 rpm for 5 s, then centrifuged at 4 °C for 5 min at 12,000× g, and the supernatant was extracted to leave a precipitate. The supernatant was the cytoplasmic protein. For the precipitate, the […] protein extraction reagent equipped with PMSF was added immediately, mixed, and then placed on ice. The highest-speed vigorous vortex was performed for 20 s every 2 min for 30 min, followed by centrifugation at 12,000× g at 4 °C for 10 min. Finally, the supernatant was taken as the nuclear protein.
HEL cells after drug action were collected, added to and mixed with cell lysis buffer, and […] on ice for one hour before protein concentration was detected using a BCA (bicinchoninic acid) kit. Proteins (50 μg) were separated by sodium dodecyl sulfate-polyacrylamide gel electrophoresis and transferred to a PVDF (polyvinylidene fluoride) membrane ([…], Bio-Rad, Hercules, CA, USA) via wet transfer. Then, 5% bovine serum albumin closed the membrane for 1 h, and the membrane was washed three times with TBS (20 mM Tris-HCl) for 5 min each time. Membranes were allowed to incubate with the primary antibody overnight at 4 °C. The anti-rabbit antibody secondary antibody was incubated at room temperature for 2 h. Then, the membrane was washed with 1× TBST (20 mM Tris-HCl, 0.1% Tween 20) for 15 min. After washing, the fetal membrane was scanned with an infrared imaging scanner. β-actin was used as a loading control.

[7] = test system: HEL cells; assay: MTT cell viability assay, HEL cells; format: cell-based; conditions: for IC50: Homo sapiens, HEL, 48 h
Method: as §2
(§6) To validate the effects of H-120 on the viability of HEL cells, we treated the cells with the compound at different concentrations (1–20 μM) for 24 h, 48 h, and 72 h. […] However, H-120 was not cytotoxic on normal HL7702 (IC50 > 20 μM) (Figure 1B). The morphology of HEL cells treated with H-120 gradually crumpled and appeared fragmented (Figure 1E).
as §3
The logarithmically grown HEL cells were collected and planted in 96-well plates at a density of 8000 cells per well. After the cell state was stabilized, HEL cells were treated with H-120 solution (0.125 μM, 0.25 μM, 0.5 μM, 1 μM), and then the OD value was measured at 570 nm in different periods of time. The growth curves were plotted.

[8] = test system: HL7702 cells; assay: MTT cytotoxicity on normal hepatic cell line HL7702; format: cell-based; conditions: Homo sapiens, L02, 48 h
Method: as §2, §6, §3

[9] = test system: F-MuLV-induced leukemia mice; assay: F-MuLV-induced erythroleukemia mice; format: in vivo, BALB/c mice; conditions: for number of leukemic cells in the spleens (H&E staining): VCR 0.25 mg/kg, H-120 1-4 mg/kg intraperitoneally
Excerpt: We used the F-MuLV-induced leukemia mice to determine the anti-leukemia activity of H-120. […] The effect of H-120 treatment is similar to that in the vincristine (VCR) treatment group (Figure 6A,C). […] The CD71 and Ter119 have been broadly used to reflect mice’s dynamic maturation of erythrocytes. We tested CD71 and Ter119 expression in spleen cells and bone marrow cells by using flow cytometry.
The NIH3T3 cells expressing the F-MuLV clone 57 vector were donated by Professor Ben-David Yaacov, Key Laboratory of Natural Product Chemistry, Chinese Academy of Sciences, Guizhou Province. In order to induce leukemia, BALB/c mice (male and females; Tongxin, Chongqing, China), aged one day, were administered a solitary intraperitoneal injection of F-MuLV. Then, infected neonates were weaned at 4 weeks and randomly divided into 6 groups: normal group (NC), model group (M), positive control group (VCR: 0.25 mg/kg), H-120 low dose group (H-120-L: 1 mg/kg), H-120 medium dose group (H-120-M: 2 mg/kg), and H-120 high dose group (H-120-H: 4 mg/kg). After 5 weeks of virus infection, mice were treated with H-120 intraperitoneally every other day for 3 weeks. The normal and model groups were given saline, and the control group was given vincristine intraperitoneally. Under the supervision of experienced staff, the leukemia mice were sacrificed humanely by cervical dislocation. Serum biochemical indexes of the mice were detected. The spleens of the mice were removed. A portion of the spleen was fixed in formaldehyde for 24 h, and paraffin was embedded and sliced. The effects of H-120 on the normal physiological structure of the spleen were observed by H&E staining. Then, part of the spleen tissue was ground and prepared into a single-cell suspension, which was stained with CD71, Ter119, CD4, CD8a, and B220 antibodies for 30 min, respectively. The expression of markers on the spleen cell surfaces of mice was analyzed by flow cytometry.

[10] = test system: HEL cells; assay: Annexin V-FITC/PI apoptosis detection by flow cytometry; format: cell-based; conditions: 1 μM
Excerpt: as §4
as §5, with “Cells were collected, fixed with pre-cooled 70% ethanol, and kept at 4 °C for 4 h before being transferred to −20 °C overnight.” left out

IC50 [2] [µM] | IC50 [4] [µM] | SMILES | IC50 [7] [µM] | IC50 [8] [µM] | number of leukemic cells in the spleens (H&E staining) ([9]; vs model group) | further results
> 20 | 10.4 ± 0.238 | C=CC(=O)Nc1ccc(Nc2ncc(C)c(Nc3sccc3C(=O)NC)n2)cc1 [H-121, 2-((2-((4-Acrylamidophenyl)amino)-5-methylpyrimidin-4-yl)amino)-N-methylthiophene-3-carboxamide] | 8.78 ± 0.45 | > 20 |  | 
16.3 ± 1.11 | 1.63 ± 0.28 | CNC(=O)c1ccccc1Nc1nc(Nc2ccc(Nc3c(NC45CC6CC(CC(C6)C4)C5)c(=O)c3=O)cc2)ncc1C(F)(F)F [H-122, 2-((2-((4-((2-(((1R,3R,5S)-Adamantan-1-yl)amino)-3,4-dioxocyclobut-1-en-1-yl)amino)phenyl)amino)-5-(trifluoromethyl)pyrimidin-4-yl)amino)-N-methylbenzamide] | 11.5 ± 0.53 | > 20 |  | 
> 20 | 5.2 ± 1.17 | CNC(=O)c1ccsc1Nc1nc(Nc2ccc(Nc3c(NC45CC6CC(CC(C6)C4)C5)c(=O)c3=O)cc2)ncc1C(F)(F)F [H-123, 2-((2-((4-((2-(((1R,3R,5S)-Adamantan-1-yl)amino)-3,4-dioxocyclobut-1-en-1-yl)amino)phenyl)amino)-5-(trifluoromethyl)pyrimidin-4-yl)amino)-N-methylthiophene-3-carboxamide] | > 20 | > 20 |  | 
 |  | CC[C@]1(O)C[C@H]2CN(CCc3c([nH]c4ccccc34)[C@@](C(=O)OC)(c3cc4c(cc3OC)N(C=O)[C@H]3[C@@](O)(C(=O)OC)[C@H](OC(C)=O)[C@]5(CC)C=CCN6CC[C@]43[C@@H]65)C2)C1 [VCR, Vincristine, reference compound] |  |  | decreased significantly | 

SMILES | IC50 [2] [µM] | IC50 [4] [µM] | IC50 [7] [µM] | IC50 [8] [µM] | number of leukemic cells in the spleens (H&E staining) ([9]; vs model group) | further results
C#CC(=O)Nc1ccc(Nc2ncc(C)c(Nc3sccc3C(=O)NC)n2)cc1 [H-120, 2-[5-Methyl-2-(4-propynoylamino-phenylamino)-pyrimidin-4-ylamino]-thiophene-3-carboxylic acid methylamide] | 2.34 ± 0.22 | 0.665 ± 0.02 | 0.148 ± 0.04 | > 20 | decreased significantly | DNA damage (Hoechst staining) [1]: caused DNA damage in a dose-dependent manner; relative value of the JC-1 monomer [3]: significantly increased; proportion of the G2/M phase in HEL cells [5]: increased; Bad, cleaved caspase-9, cleaved caspase-3 and cleaved PARP expression [6]: up-regulated considerably; Bcl-2 and Bcl-xL expression [6]: significantly down-regulated; expressions of Ras, phosphorylated Raf, MEK and ERK [6]: significantly reduce; levels of cell cycle proteins p-CDC25C and CyclinB1 ([6]; dose-dependent): decreased; p53 level ([6]; dose-dependent): up-regulated; p-STAT3 and c-Myc levels ([6]; dose-dependent): significantly down-regulated; HEL cell proliferation ([7]; 24 h, 48 h and 72 h): prevented the HEL cell proliferation in a dose- and time-dependent manner; effects on renal and cardiac functions (URA, CREA, UA, CK-MB) ([9]; erythroleukemia mice): no effects; proportions of CD4, CD8a and B220 cells in spleen ([9]; flow cytometry): increased significantly; mature erythrocytes CD71-Ter119+ in spleen cells and bone marrow cells ([9]; flow cytometry, vs model group): significantly increased; levels of liver index, ALT and AST ([9]; vs model group): significantly lower; spleen weight ([9]; vs model mice, H-120 1, 2, 4 mg/kg intraperitoneally every other day for 3 weeks): significantly declined; apoptosis rate of HEL cells ([10]; 48 h): 14.28%; apoptosis rate of HEL cells ([10]; 72 h): 36.45%

— article PMC11013136, “Design, Synthesis, and Anti-Leukemic Evaluation of a Series of Dianilinopyrimidines by Regulating the Ras/Raf/MEK/ERK and STAT3/c-Myc Pathways” (Molecules, 2024)
